Legend:
[1] = target: IRAK4 (Homo sapiens (Human), UniProt Q9NWZ3); assay: IRAK4 Inhibition Assay; format: biochemical; details: IRAK4 Inhibition Assay; ATP 500 μM; read-out: IRAK4 IC50
How it was run: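 IRAK4 combined with fluorescent substrate and compounds, reacted 60 min at room temperature, stopped with 35 mM EDTA. Substrate and phosphorylated product separated electrophoretically on a Caliper LabChip 3000 mobility-shift reader.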

[2] = test system: TLR2 induced IL-6 in peripheral blood mononuclear cells (PBMCs); assay: PBMC TLR2 Induced IL-6 Assay; format: cell-based, human; details: Homo sapiens, PBMC, PBMC TLR2 Induced IL-6 Assay; lipoteichoic acid stimulation, IL-6 by ELISA; read-out: Cell EC50
How it was run: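 Lipoteichoic acid at 10 µg/ml served as TLR2 stimulus for 5 hours, following a 30-minute compound pretreatment at 37° C. Cells were Ficoll-isolated human PBMCs, 250000 cells/well, cultured in RPMI plus 10% heat-inactivated FCS.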

IRAK4, sequence (Q9NWZ3 whole entry, species assumed): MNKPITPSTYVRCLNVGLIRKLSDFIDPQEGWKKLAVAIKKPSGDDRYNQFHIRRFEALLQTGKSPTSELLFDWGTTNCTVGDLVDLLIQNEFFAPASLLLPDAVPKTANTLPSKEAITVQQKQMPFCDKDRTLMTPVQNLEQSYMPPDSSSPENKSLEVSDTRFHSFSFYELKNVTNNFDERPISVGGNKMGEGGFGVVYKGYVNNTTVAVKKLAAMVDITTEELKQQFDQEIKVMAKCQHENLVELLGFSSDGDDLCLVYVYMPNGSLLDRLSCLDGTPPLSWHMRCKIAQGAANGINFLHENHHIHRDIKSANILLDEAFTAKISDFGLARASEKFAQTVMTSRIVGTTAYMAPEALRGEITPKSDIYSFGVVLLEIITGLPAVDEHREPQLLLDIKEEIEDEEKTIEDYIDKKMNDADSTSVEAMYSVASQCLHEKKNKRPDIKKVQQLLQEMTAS

| SMILES | IC50 [1] [nM] | EC50 [2] [nM] |
| --- | --- | --- |
| CS(=O)(=O)[C@H]1CC[C@H](NC(=O)c2cnc(-n3ccc4cc(C#N)cnc43)cc2Nc2cccc(C(N)=O)c2)CC1 [Example 105, 4-((3-Carbamoylphenyl)amino)-6-(5-cyano-1H-pyrrolo[2,3-b]pyridin-1-yl)-N-((trans)-4-(methylsulfonyl)cyclohexyl)nicotinamide] | 3.9 | 437 |
| C[C@@H](CF)Nc1cc(-n2ccc3cncnc32)ncc1C(=O)NC[C@@H](F)C(C)(C)O [Example 116, N—((R)-2-fluoro-3-hydroxy-3-methylbutyl)-4-(((S)-1-fluoropropan-2-yl)amino)-6-(7H-pyrrolo[2,3-d]pyrimidin-7-yl)nicotinamide] | 6.2 | 133 |
| C[C@@H](CF)Nc1cc(-n2ccc3cc(C#N)cnc32)ncc1C(=O)NCCC(C)(C)O [Example 119, (S)-6-(5-cyano-1H-pyrrolo[2,3-b]pyridin-1-yl)-4-((1-fluoropropan-2-yl)amino)-N-(3-hydroxy-3-methylbutyl)nicotinamide] | 4.4 | 91 |
| C[C@H](CF)Nc1cc(-n2ccc3cc(C#N)cnc32)ncc1C(=O)NCCC(C)(C)O [Example 120, (R)-6-(5-cyano-1H-pyrrolo[2,3-b]pyridin-1-yl)-4-((1-fluoropropan-2-yl)amino)-N-(3-hydroxy-3-methylbutyl)nicotinamide] | 5.1 | 105 |
| C[C@@H](CF)Nc1cc(-n2ncc3cc(C#N)cnc32)ncc1C(=O)NC[C@@H](F)C(C)(C)O [Example 121, 6-(5-cyano-1H-pyrazolo[3,4-b]pyridin-1-yl)-N—((R)-2-fluoro-3-hydroxy-3-methylbutyl)-4-(((S)-1-fluoropropan-2-yl)amino) nicotinamide] | 5.2 | 112 |
| CNC(=O)[C@H]1CC[C@H](NC(=O)c2cnc(-n3ncc4cc(C#N)cnc43)cc2N[C@@H](C)CF)CC1 [Example 122, 6-(5-cyano-1H-pyrazolo[3,4-b]pyridin-1-yl)-4-(((S)-1-fluoropropan-2-yl)amino)-N-((1r,4S)-4-(methylcarbamoyl)cyclohexyl)nicotinamide] | 16 | 501 |
| CCNc1cc(-n2ccc3cc(C(N)=O)cnc32)ncc1C(=O)NC[C@@H](F)C(C)(C)O [Example 123, (R)-1-(4-(Ethylamino)-5-((2-fluoro-3-hydroxy-3-methylbutyl)carbamoyl)pyridin-2-yl)-1H-pyrrolo[2,3-b]pyridine-5-carboxamide] | 4.5 | 128 |
| CC(C)(O)[C@H](F)CNC(=O)c1cnc(-n2ccc3cc(C(N)=O)cnc32)cc1NC1CCC1 [Example 124, (R)-1-(4-(Cyclobutylamino)-5-((2-fluoro-3-hydroxy-3-methylbutyl)carbamoyl)pyridin-2-yl)-1H-pyrrolo[2,3-b]pyridine-5-carboxamide] | 4.8 | 119 |
| CC(=O)OC(C)(C)C(=O)NCCNC(=O)c1cnc(-n2ccc3cc(C#N)cnc32)cc1NC(C)C [Example 125, 1-((2-(6-(5-Cyano-1H-pyrrolo[2,3-b]pyridin-1-yl)-4-(isopropylamino)nicotinamido)ethyl)amino)-2-methyl-1-oxopropan-2-yl acetate] | 6.7 | 202 |
| CC(C)Nc1cc(-n2ccc3cc(C#N)cnc32)ncc1C(=O)NCCNC(=O)C(C)(C)O [Example 126, 6-(5-Cyano-1H-pyrrolo[2,3-b]pyridin-1-yl)-N-(2-(2-hydroxy-2-methylpropanamido)ethyl)-4-(isopropylamino)nicotinamide] | 7.5 | 150 |
| COC[C@H](F)CNC(=O)c1cnc(-n2ncc3cc(C#N)cnc32)cc1NC(C)C [Example 128, (R)-6-(5-Cyano-1H-pyrazolo[3,4-b]pyridin-1-yl)-N-(2-fluoro-3-methoxypropyl)-4-(isopropylamino)nicotinamide] | 8.9 | 248 |
| CC(C)(O)[C@H](F)CNC(=O)c1cnc(-n2ccc3cc(C#N)cnc32)cc1NC(CO)CF (stereo partly drawn) [Example 131, 6-(5-Cyano-1H-pyrrolo[2,3-b]pyridin-1-yl)-N—((R)-2-fluoro-3-hydroxy-3-methylbutyl)-4-((1-fluoro-3-hydroxypropan-2-yl)amino)nicotinamide] | 6.8 | 410 |
| CNC(=O)[C@H](F)CNC(=O)c1cnc(-n2ccc3cc(C#N)cnc32)cc1NC1CC1 [Example 132, (R)-6-(5-Cyano-1H-pyrrolo[2,3-b]pyridin-1-yl)-4-(cyclopropylamino)-N-(2-fluoro-3-(methylamino)-3-oxopropyl)nicotinamide] | 4.7 | 92 |
| CCNc1cc(-n2ncc3cc(C#N)cnc32)ncc1C(=O)NC[C@@H](F)C(C)(C)O [Example 138, (R)-6-(5-cyano-1H-pyrazolo[3,4-b]pyridin-1-yl)-4-(ethylamino)-N-(2-fluoro-3-hydroxy-3-methylbutyl)nicotinamide] | 6.4 | 152 |
| CNC(=O)[C@H]1CC[C@H](NC(=O)c2cnc(-n3ncc4cc(C#N)cnc43)cc2NC2CC2)CC1 [Example 140, 6-(5-cyano-1H-pyrazolo[3,4-b]pyridin-1-yl)-4-(cyclopropylamino)-N-((trans)-4-(methylcarbamoyl)cyclohexyl)nicotinamide] | 8.3 | 226 |
| CC(C)Nc1cc(-n2ncc3cncnc32)ncc1C(=O)NC[C@@H](F)C(C)(C)O [Example 144, (R)—N-(2-fluoro-3-hydroxy-3-methylbutyl)-4-(isopropylamino)-6-(1H-pyrazolo[3,4-d]pyrimidin-1-yl)nicotinamide] | 6.2 | 148 |
| CC(C)(O)[C@H](F)CNC(=O)c1cnc(-n2ncc3cc(C#N)cnc32)cc1NC1CCC1 [Example 145, (R)-6-(5-cyano-1H-pyrazolo[3,4-b]pyridin-1-yl)-4-(cyclobutylamino)-N-(2-fluoro-3-hydroxy-3-methylbutyl)nicotinamide] | 4.5 | 61 |

The next compounds have a lower IC50 [1] than those just listed; values first:

| IC50 [1] [nM] | SMILES | EC50 [2] [nM] |
| --- | --- | --- |
| 3.6 | CC(C)Nc1cc(-n2ccc3cc(C#N)cnc32)ncc1C(=O)N[C@H]1CC[C@H](S(C)(=O)=O)CC1 [Example 102, 6-(5-Cyano-1H-pyrrolo[2,3-b]pyridin-1-yl)-4-(isopropylamino)-N-((trans)-4-(methylsulfonyl)cyclohexyl)nicotinamide] | 47 |
| 3.5 | CS(=O)(=O)[C@H]1CC[C@H](NC(=O)c2cnc(-n3ccc4cc(C#N)cnc43)cc2NC2CCOCC2)CC1 [Example 103, 6-(5-Cyano-1H-pyrrolo[2,3-b]pyridin-1-yl)-N-((trans)-4-(methylsulfonyl)cyclohexyl)-4-((tetrahydro-2H-pyran-4-yl)amino)nicotinamide] | 125 |
| 3.3 | C[C@H](CF)Nc1cc(-n2ccc3cncnc32)ncc1C(=O)NC[C@@H](F)C(C)(C)O [Example 115, N—((R)-2-fluoro-3-hydroxy-3-methylbutyl)-4-(((R)-1-fluoropropan-2-yl)amino)-6-(7H-pyrrolo[2,3-d]pyrimidin-7-yl)nicotinamide] | 82 |
| 2.9 | CC(C)(O)[C@H](F)CNC(=O)c1cnc(-n2ncc3cc(C#N)cnc32)cc1NC1CC1 [Example 139, (R)-6-(5-cyano-1H-pyrazolo[3,4-b]pyridin-1-yl)-4-(cyclopropylamino)-N-(2-fluoro-3-hydroxy-3-methylbutyl)nicotinamide] | 118 |
| 2.8 | COC[C@H](F)CNC(=O)c1cnc(-n2ccc3cc(C#N)cnc32)cc1NC(C)C [Example 127, (R)-6-(5-Cyano-1H-pyrrolo[2,3-b]pyridin-1-yl)-N-(2-fluoro-3-methoxypropyl)-4-(isopropylamino)nicotinamide] | 89 |
| 2.6 | CC(C)Nc1cc(-n2ncc3cc(C#N)cnc32)ncc1C(=O)NC[C@@H](F)C(C)(C)O [Example 133, (R)-6-(5-Cyano-1H-pyrazolo[3,4-b]pyridin-1-yl)-N-(2-fluoro-3-hydroxy-3-methylbutyl)-4-(isopropylamino)nicotinamide] | 120 |
| 2.4 | C[C@@H](CF)Nc1cc(-n2ccc3cc(C#N)cnc32)ncc1C(=O)NC[C@@H](F)C(C)(C)O [Example 117, 6-(5-cyano-1H-pyrrolo[2,3-b]pyridin-1-yl)-N—((R)-2-fluoro-3-hydroxy-3-methylbutyl)-4-(((S)-1-fluoropropan-2-yl)amino)nicotinamide] | 28 |
| 2.2 | CC(C)(O)[C@H](F)CNC(=O)c1cnc(-n2ncc3cc(C#N)cnc32)cc1NC1CCOCC1 [Example 141, (R)-6-(5-cyano-1H-pyrazolo[3,4-b]pyridin-1-yl)-N-(2-fluoro-3-hydroxy-3-methylbutyl)-4-((tetrahydro-2H-pyran-4-yl)amino)nicotinamide] | 87 |
| 1.9 | CC(CF)Nc1cc(-n2ccc3cncnc32)ncc1C(=O)NC[C@@H](F)C(C)(C)O (stereo partly drawn) [Example 113, N—((R)-2-Fluoro-3-hydroxy-3-methylbutyl)-4-((1-fluoropropan-2-yl)amino)-6-(7H-pyrrolo[2,3-d]pyrimidin-7-yl)nicotinamide] | 222 |
| 1.8 | C[C@H](CF)Nc1cc(-n2ccc3cc(C#N)cnc32)ncc1C(=O)NC[C@@H](F)C(C)(C)O [Example 118, 6-(5-cyano-1H-pyrrolo[2,3-b]pyridin-1-yl)-N—((R)-2-fluoro-3-hydroxy-3-methylbutyl)-4-(((R)-1-fluoropropan-2-yl)amino)nicotinamide] | 18 |
| 1.7 | CS(=O)(=O)[C@H]1CC[C@H](NC(=O)c2cnc(-n3ccc4cc(C#N)cnc43)cc2NC2CC2)CC1 [Example 104, 6-(5-Cyano-1H-pyrrolo[2,3-b]pyridin-1-yl)-4-(cyclopropylamino)-N-((trans)-4-(methylsulfonyl)cyclohexyl)nicotinamide] | 67 |

— US9169252B2 (BRISTOL-MYERS SQUIBB COMPANY, priority 2014, dated 2015)
